The text below walks through data of patent US11712416B2, “Solid oral pharmaceutical compositions for isoxazoline compounds” (Intervet Inc., priority 2012, dated 2023).

Series [1] is described as follows: Solubility of the active (fluralaner) in formulation solvents. The class given is physicochemical. The settings on record: organic solvent or mixture.
Series [2] can be described thus: Blood plasma pharmacokinetic profile of isoxazoline compounds in two chewable formulations after a single oral administration in dogs (Example 8). Format: in vivo. The note with it: beagle dogs; for Cmax / Tmax / AUC(0-t): dog, plasma; for AUC(0-t): read-out: AUC(0-168h). The text has this:
Pharmacokinetic Profile Following Oral Administration of Chewable Formulations of Isoxazoline Compounds
The objective of this study is to compare the blood plasma pharmacokinetic profile of three different isoxazoline compounds in two different chewable formulations after a single oral (PO) administration of in dogs.
The following compounds were formulated according to the invention. Specifically, the isoxazoline compound was first dissolved in a solvent, i.e. 2-pyrrolidone. This drug solution was then adsorbed onto the solid carrier, i.e. microcrystalline cellulose, which was incorporated into a solid oral dosage form as described in the specification with excipients as described in Table 3. Comparative example formulation ID No. 13-009, 13-011 and 13-013 contain the active drug substance incorporated as a solid that was manufactured as described in general in the specification without prior pre-dissolving the active ingredient and adsorption to the solid carrier.
The test compounds were administered orally to four beagle dogs per dose group for a total of twenty-four dogs.
Each animal was administered the tablet or chew by placing it in the back of the oral cavity over the tongue to initiate swallowing.
Plasma was obtained from the collected blood samples and analyzed for concentrations of the test compounds. Individual blood samples (approximately 4.5 mL per sample) were taken via jugular venipuncture into sodium-citrate tubes from all dogs for drug analysis. Blood samples were collected at the following time points: pretreatment (within 2 h prior to dosing) and approximately 1, 2, 4, 6, 8, 24, 48, 72 hours after dosing (15 min). A final blood sample was taken from each dog on Day 7 (2 h after the time of dosing on Day 0).
Pharmacokinetic analysis was performed on the plasma concentration data with the computer program Pharsight WinNonlin Enterprise, Version 4.0.1, or more recent update (Model 200: plasma data, extravascular input).

The mark [3] stands for this setting: single oral dose 10 mg/kg, Alternate Chew (compound dissolved in 2-pyrrolidone).
Where [4] appears, read: single oral dose 25 mg/kg, Control Chew (compound not dissolved).

Converted amounts (≈) assume the structure as drawn. Read-outs that look alike come from different tables or passages of the source.

Take `Cc1cc(C2=NOC(c3cc(Cl)cc(Cl)c3)(C(F)(F)F)C2)ccc1C(=O)NCC(=O)NCC(F)(F)F` (centres unmarked) [Compound A-1443, 4-[5-(3,5-Dichlorophenyl)-5-trifluoromethyl-4,5-dihydroisoxazol-3-yl]-2-methyl-N-[(2,2,2-trifluoro-ethylcarbamoyl)-methyl]-benzamide]: the solubility worked out at 775 mg/mL (≈ 1390 mM) in series [1] (2-pyrrolidone (2-pyrol), solvent 2-pyrrolidone, read-out: solubility in 2-pyrrolidone (2-pyrol)) and 792 mg/mL (≈ 1420 mM) in series [1] (dimethylacetamide (DMAC), solvent DMAC, read-out: solubility in dimethylacetamide (DMAC)).

In series [2] (setting [3]), `Cc1cc(C2=NOC(c3cc(Cl)cc(Cl)c3)(C(F)(F)F)C2)ccc1C(=O)NC1CSC1` (centres unmarked) [Compound A] displayed a Cmax/Dose of 1.71 kg·ng/mL/mg and a maximum concentration (Cmax) of 17.1 ng/mL. Besides, in series [2] (setting [4]), the Cmax/Dose stood at 0.768 kg·ng/mL/mg and the Cmax worked out at 19.2 ng/mL.

`O=C(CNC(=O)c1ccc(C2=NOC(c3cc(Cl)cc(C(F)(F)F)c3)(C(F)(F)F)C2)c2ccccc12)NCC(F)(F)F` (centres unmarked) [Compound B]: in series [2] (setting [3]), the “AUC(0-168h)/Dose” value was found to be 33416 kg·ng·h/mL/mg, the Cmax/Dose came out at 321 kg·ng/mL/mg, the highest level (Cmax) was 3210 ng/mL and the Tmax was determined as 15.5 h. Also, the AUC(0-t) in series [2] (setting [3]) was found to be 334 µg·h/mL. Also, in series [2] (setting [4]), the “AUC(0-168h)/Dose” value is 16661 kg·ng·h/mL/mg, the Cmax/Dose was found to be 174 kg·ng/mL/mg, the concentration peaked (Cmax) at 4340 ng/mL and the Tmax came to 5 h. The AUC(0-t) in series [2] (setting [4]) stood at 417 µg·h/mL.

Consider `Cc1cc(C2=NOC(c3cc(Cl)cc(Cl)c3)(C(F)(F)F)C2)sc1C(=O)NCC(=O)NCC(F)(F)F` (centres unmarked) [Compound C], for which, in series [2] (setting [3]), the “AUC(0-168h)/Dose” value came out at 32660 kg·ng·h/mL/mg, the Cmax/Dose was 254 kg·ng/mL/mg, the Cmax stood at 2540 ng/mL and the Tmax was determined as 15.5 h. Also, the AUC(0-t) in series [2] (setting [3]) worked out at 327 µg·h/mL. Further, in series [2] (setting [4]), the “AUC(0-168h)/Dose” value was found to be 6573 kg·ng·h/mL/mg, the Cmax/Dose worked out at 63.5 kg·ng/mL/mg, the concentration peaked (Cmax) at 1590 ng/mL and the Tmax amounted to 27.5 h. The AUC(0-t) in series [2] (setting [4]) stood at 164 µg·h/mL.

In general, solubility refers to the dissolved amount per volume that the medium holds. As a reminder, the Cmax is the peak of the concentration-time curve. Broadly, the Tmax is the time from dosing to the highest level.
